Laboratory results taken from patent publication US9732075B2, “Benzimidazole-proline derivatives” (IDORSIA PHARMACEUTICALS LTD, priority 2012, dated 2017).

What was measured:
human orexin-1 receptor = human orexin-1 receptor (Homo sapiens (Human), UniProt O43613); assay: In vitro assay: intracellular calcium measurements (FLIPR), antagonistic activity; format: cell-based; details: CHO cells expressing human orexin-1 receptor, orexin-A agonist, geometric mean, read-out: IC50 Ox1
How it was run: (§1)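 Dye-loaded CHO cells expressing either human orexin receptor are exposed to test antagonist for 120 min, then stimulated with orexin-A at 3 nM.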

human orexin-2 receptor = human orexin-2 receptor (Homo sapiens (Human), UniProt O43614); assay: as above; format: cell-based; details: CHO cells expressing human orexin-2 receptor, orexin-A agonist, geometric mean, read-out: IC50 Ox2
How it was run: as §1

Chain of human orexin-1 receptor (O43613 whole entry): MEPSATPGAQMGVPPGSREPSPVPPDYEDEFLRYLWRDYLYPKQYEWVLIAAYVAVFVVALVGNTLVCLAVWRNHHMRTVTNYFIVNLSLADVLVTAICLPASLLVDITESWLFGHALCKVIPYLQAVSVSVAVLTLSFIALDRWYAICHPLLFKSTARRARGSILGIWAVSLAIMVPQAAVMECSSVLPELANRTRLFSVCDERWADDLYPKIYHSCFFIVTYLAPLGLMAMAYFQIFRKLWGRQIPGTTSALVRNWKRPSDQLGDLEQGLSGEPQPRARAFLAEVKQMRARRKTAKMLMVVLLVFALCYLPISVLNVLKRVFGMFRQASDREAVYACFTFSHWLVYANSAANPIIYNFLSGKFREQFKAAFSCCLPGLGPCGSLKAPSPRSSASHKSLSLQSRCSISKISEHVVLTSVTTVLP
Chain of human orexin-2 receptor (O43614 whole entry): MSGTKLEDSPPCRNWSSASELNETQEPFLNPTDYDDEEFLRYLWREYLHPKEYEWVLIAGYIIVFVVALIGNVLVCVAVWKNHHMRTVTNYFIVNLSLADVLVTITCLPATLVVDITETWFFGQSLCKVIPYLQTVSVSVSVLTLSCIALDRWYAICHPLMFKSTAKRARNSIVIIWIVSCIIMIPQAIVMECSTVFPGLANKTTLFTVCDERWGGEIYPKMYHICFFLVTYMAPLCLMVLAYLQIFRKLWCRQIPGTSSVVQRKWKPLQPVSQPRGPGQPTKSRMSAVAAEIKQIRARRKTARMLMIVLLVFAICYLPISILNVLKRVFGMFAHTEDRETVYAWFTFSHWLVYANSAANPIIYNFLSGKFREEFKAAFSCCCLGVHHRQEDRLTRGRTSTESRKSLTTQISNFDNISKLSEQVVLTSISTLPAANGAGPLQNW

IC50 (human orexin-1 receptor) [nM] | IC50 (human orexin-2 receptor) [nM] | Structure (SMILES)
1 | 86 | COc1cccc(C#Cc2ccccc2C(=O)N2CC[C@H](C)[C@H]2c2nc3c(C)c(Cl)ccc3[nH]2)c1 [Ex. 4.134]
13 | 25 | CSc1cccc2nc([C@@H]3CCCN3C(=O)c3cnc(C)nc3-c3cc(Cl)cc(Cl)c3)[nH]c12 [Ex. 1.91]
8 | 24 | C[C@@]1(c2nc3cc(C(F)(F)F)c(Cl)cc3[nH]2)CCCN1C(=O)c1ccccc1-n1nccn1 [Ex. 5.142]
369 | 182 | COc1ccc2nc([C@@H]3CCCN3C(=O)c3cnc(C)nc3-c3cccc(Cl)c3)[nH]c2c1 [Ex. 1.29]
245 | 5 | COc1ccc2nc([C@@H]3CCCN3C(=O)c3ccc(C)cc3-n3nccn3)[nH]c2c1 [Ex. 1.160]
282 | 23 | CSc1ccc2nc([C@@H]3CCCN3C(=O)c3cc(C#N)ccc3-n3nccn3)[nH]c2c1 [Ex. 1.152]
13 | 98 | Cc1ccc(-c2ccccc2F)c(C(=O)N2CCC[C@@]2(C)c2nc3cc(C(F)(F)F)ccc3[nH]2)c1 [Ex. 5.194]
58 | 18 | C=C1C[C@@H](c2nc3cc(Cl)c(C(F)(F)F)cc3[nH]2)N(C(=O)c2cc(F)ccc2-n2nccn2)C1 [Ex. 6.176]
13 | 1520 | Cc1ccc(C(=O)N2CC[C@H](C)[C@H]2c2nc3cc(Cl)c(C)cc3[nH]2)c(-c2cccnc2)c1 [Ex. 4.110]
38 | 54 | Cc1ccc(-c2ccc3c(c2)OCO3)c(C(=O)N2CCC[C@@]2(C)c2nc3cc(C(F)(F)F)c(Cl)cc3[nH]2)c1 [Ex. 5.156]
389 | 1070 | C[C@@]1(c2nc3cc(C(F)(F)F)ccc3[nH]2)CCCN1C(=O)c1ccccc1-n1cccn1 [Ex. 5.176]
6 | 67 | Cc1c(Cl)ccc2[nH]c([C@@H]3[C@@H](C)CCN3C(=O)c3ccccc3-n3nccn3)nc12 [Ex. 4.59]
69 | 92 | C=C1C[C@@H](c2nc3cc(OC)ccc3[nH]2)N(C(=O)c2nc(N3CCCC3)sc2-c2cccc(F)c2)C1 [Ex. 6.29]
100 | 9 | C=C1C[C@@H](c2nc3cc(C(C)(C)C)ccc3[nH]2)N(C(=O)c2c(-n3nccn3)ccc(C)c2F)C1 [Ex. 6.164]
10 | 18 | Cc1ccc(-c2ncccn2)c(C(=O)N2CCC[C@@]2(C)c2nc3cc(C)c(C)cc3[nH]2)c1 [Ex. 5.284]
7 | 2170 | Cc1ccc(-c2sc(C)nc2C(=O)N2CC[C@H](C)[C@H]2c2nc3cc(C(F)(F)F)ccc3[nH]2)cc1 [Ex. 4.140]
4 | 203 | COc1cccc(C#Cc2ccccc2C(=O)N2CC[C@H](C)[C@H]2c2nc3cc(Cl)c(C)cc3[nH]2)c1 [Ex. 4.135]
592 | 414 | COc1cc2nc([C@]3(C)CCCN3C(=O)c3nc(C)sc3-c3ccc(C(F)(F)F)cc3)[nH]c2cc1OC [Ex. 5.74]
74 | 23 | CSc1ccc2nc([C@@H]3CCCN3C(=O)c3nc(C)sc3-c3ccc(C)cc3)[nH]c2c1 [Ex. 1.40]
15 | 21 | COc1ccc(-c2ccccc2F)c(C(=O)N2CCC[C@@]2(C)c2nc3c(C)c(Cl)ccc3[nH]2)c1F [Ex. 5.298]

IC50 (human orexin-1 receptor) [nM] | IC50 (human orexin-2 receptor) [nM] | Structure (SMILES)
23 | 91 | Cc1ccc(C(=O)N2CCC[C@@]2(C)c2nc3cc(OC(F)(F)F)ccc3[nH]2)c(-n2nccn2)c1 [Ex. 5.238]
5 | 8 | Cc1c(Cl)ccc2c1nc([C@]1(C)CCCN1C(=O)c1ccccc1-n1nccn1)n2C [Ex. 7.19]
2 | 603 | Cc1nc(C(=O)N2CC[C@H](C)[C@H]2c2nc3cccc(C)c3[nH]2)c(-c2cccc(Cl)c2)s1 [Ex. 4.7]
159 | 2320 | Cc1ccc(-n2cccn2)c(C(=O)N2CC[C@H](C)[C@H]2c2nc3cc(C)c(C)cc3[nH]2)c1 [Ex. 4.83]
20 | 968 | Cc1c(Cl)ccc2[nH]c([C@@H]3[C@@H](C)CCN3C(=O)c3cc(F)ccc3-c3ccccn3)nc12 [Ex. 4.165]
112 | 180 | COc1ccc(-c2nccnc2C(=O)N2CCC[C@H]2c2nc3cccc(SC)c3[nH]2)cc1 [Ex. 1.72]
5 | 7 | Cc1cccc(-c2ccc(C)cc2C(=O)N2CCC[C@@]2(C)c2nc3c(C)c(C)ccc3[nH]2)c1 [Ex. 5.111]
22 | 494 | Cc1nc(C(=O)N2CCC[C@@]2(C)c2nc3cc(OC(F)(F)F)ccc3[nH]2)c(-c2ccc(F)cc2)s1 [Ex. 5.248]
349 | 7 | COc1ccc2[nH]c([C@@H]3CCCN3C(=O)c3cc(C)ccc3-n3nccn3)nc2c1 [Ex. 1.2]
5 | 177 | Cc1cc2[nH]c([C@@H]3[C@@H](C)CCN3C(=O)c3cc(F)ccc3-c3ccccc3)nc2cc1Cl [Ex. 4.105]
83 | 5 | C=C1C[C@@H](c2nc3ccc(Cl)c(C)c3[nH]2)N(C(=O)c2nc(C)ccc2-n2cccn2)C1 [Ex. 6.135]
5 | 20 | C=C1CN(C(=O)c2nc(N(C)C)sc2-c2cccc(Cl)c2)C(C)(c2nc3cc(OC)ccc3[nH]2)C1 (stereo not drawn) [Ex. 6.152]
3 | 2020 | Cc1nc(C(=O)N2CC[C@H](C)[C@H]2c2nc3cc(Cl)c(C)cc3[nH]2)c(-c2cc(F)cc(F)c2)s1 [Ex. 4.80]
46 | 70 | Cc1cc2nc([C@]3(C)CCCN3C(=O)c3ccccc3-c3ccccc3F)[nH]c2cc1C [Ex. 5.103]
307 | 151 | C=C1C[C@@H](c2nc3cc(OC)ccc3[nH]2)N(C(=O)c2cnc(C)nc2-c2ccccc2)C1 [Ex. 6.16]
13 | 32 | Cc1ccc(-c2ccc(F)cc2)c(C(=O)N2CCC[C@@]2(C)c2nc3cc(C)c(C)cc3[nH]2)c1 [Ex. 5.96]
7 | 352 | Cc1ccc(-c2ccccc2C(=O)N2CC[C@H](C)[C@H]2c2nc3cc(C)c(C)cc3[nH]2)cc1 [Ex. 4.86]
624 | 147 | COc1ccc2nc([C@@H]3CCCN3C(=O)c3cncnc3-c3ccc(Br)c(Cl)c3)[nH]c2c1 [Ex. 1.30]
59 | 133 | COc1cc(C(=O)N2CCC[C@@]2(C)c2nc3cc(C(F)(F)F)ccc3[nH]2)c(-n2nccn2)cc1OC [Ex. 5.174]
14 | 10 | C=C1CC(c2nc3cc(Cl)c(C(F)(F)F)cc3[nH]2)N(C(=O)c2nc(C3CC3)sc2-c2cccc(C)c2)C1 (racemic) [Ex. 6.97]

IC50 (human orexin-1 receptor) [nM] | IC50 (human orexin-2 receptor) [nM] | Structure (SMILES)
21 | 26 | COc1cccc(-c2ccc(C)cc2C(=O)N2CCC[C@@]2(C)c2nc3cc(C(F)(F)F)c(Cl)cc3[nH]2)c1 [Ex. 5.149]
2510 | 33 | COc1ccc2nc([C@@H]3C[C@@H](OC)CN3C(=O)c3ccc(C)cc3-n3nccn3)[nH]c2c1 [Ex. 3.21]
301 | 11 | COc1ccc(-n2nccn2)c(C(=O)N2CCC[C@H]2c2nc3ccc(SC)cc3[nH]2)c1 [Ex. 1.150]
227 | 924 | Cc1ccc(C(=O)N2CCC[C@@]2(C)c2nc3c(F)c(F)ccc3[nH]2)c(-n2nccn2)c1 [Ex. 5.202]
477 | 52 | C=C1C[C@@H](c2nc3cc(OC)ccc3[nH]2)N(C(=O)c2nccnc2-c2cccc(C)c2)C1 [Ex. 6.6]
24 | 355 | Cc1ccc(-n2cccn2)c(C(=O)N2CCC[C@@]2(C)c2nc3cc(C(F)(F)F)ccc3[nH]2)c1 [Ex. 5.175]
132 | 669 | Cc1ccc(-n2nccn2)c(C(=O)N2CC[C@H](C)[C@H]2c2nc3cc(C)ccc3[nH]2)c1 [Ex. 4.2]
102 | 408 | CSc1cccc2nc([C@@H]3CCCN3C(=O)c3cncnc3-c3ccc(C)cc3)[nH]c12 [Ex. 1.78]
192 | 166 | COc1cc2nc([C@]3(C)CCCN3C(=O)c3ccccc3-c3ccc(C)cc3)[nH]c2cc1OC [Ex. 5.88]
410 | 19 | C=C1C[C@@H](c2nc3cc(OC)ccc3[nH]2)N(C(=O)c2nc(C)sc2-c2ccc(Br)cc2)C1 [Ex. 6.22]
10 | 103 | Cc1ccc(-c2ccccn2)c(C(=O)N2CC[C@H](C)[C@H]2c2nc3cc(Cl)c(C)cc3[nH]2)c1 [Ex. 4.102]
56 | 23 | CSc1cccc2nc([C@@H]3CCCN3C(=O)c3cc(C)ccc3-n3nccn3)[nH]c12 [Ex. 1.5]
35 | 2750 | COc1ccccc1-c1sc(C)nc1C(=O)N1CC[C@H](C)[C@H]1c1nc2c(Cl)cccc2[nH]1 [Ex. 4.129]
1260 | 67 | C=C1C[C@@H](c2nc3cc(C(C)(C)C)ccc3[nH]2)N(C(=O)c2ccccc2-n2cccn2)C1 [Ex. 6.172]
128 | 197 | CSc1cccc2nc([C@@H]3CCCN3C(=O)c3nc(C)sc3-c3cccc(Cl)c3Cl)[nH]c12 [Ex. 1.62]
97 | 8 | CSc1ccc2nc([C@@H]3CCCN3C(=O)c3cc(C)ccc3-n3nccn3)[nH]c2c1 [Ex. 1.17]
107 | 43 | Cc1cccc2[nH]c([C@]3(C)CCCN3C(=O)c3ccccc3-n3nccn3)nc12 [Ex. 5.52]
5 | 12 | CO[C@H]1CN(C(=O)c2nc(C)sc2-c2ccccc2)C(C)(c2nc3c(C)c(Cl)ccc3[nH]2)C1 (stereo partly drawn) [Ex. 3.24]
20 | 1 | C=C1C[C@@H](c2nc3ccc(Cl)c(C)c3[nH]2)N(C(=O)c2cc(Cl)ccc2-n2nccn2)C1 [Ex. 6.128]

Structure (SMILES) | IC50 (human orexin-1 receptor) [nM] | IC50 (human orexin-2 receptor) [nM]
Cc1ccc(-n2nccn2)c(C(=O)N2CCC[C@@]2(C)c2nc3c(C)c(Cl)ccc3[nH]2)c1 [Ex. 5.2] | 2 | 5
